# Assay results taken from patent US9938516B2, “Non-natural amino acid tRNA synthetases for para-methylazido-L-phenylalanine” (SUTRO BIOPHARMA, INC., priority 2013, dated 2018).
# Experiment: copper-free click conjugation kinetics with DBCO-PEG
# Format: physicochemical
# Details: 10-fold molar excess DBCO-PEG; 25° C., ionic strength 0.5 M (KCl), 0.005% Tween-20, phosphate buffer
# Method: The small molecule conjugation kinetics of pAzF and pAMF were compared. In particular, pAzF and pAMF were reacted at increasing concentrations with a 10-fold molar excess of dibenzocyclooctyl-polyethylene glycol (DBCO-PEG) compound (FIG. 2A and FIG. 2C) in a copper-free click reaction. First-order kinetics at 25° C., ionic strength 0.5 M (KCl), and 0.005% Tween-20 in phosphate buffer were determined under pseudo-first-order conditions in triplicate, using a SpectraMax M5 plate reader with 96-well polystyrene plates (Molecular Devices, Sunnyvale, Calif.). The formation of conjugated product was measured by the decrease in absorbance of the strained cyclooctoalkyne DBCO at 306 nm in the presence of increasing concentrations of pAzF or pAMF. The second-order rate constants were calculated according to kcat (M−1 sec-1)=kobs/[Azido].
smiles,measurement,value
"[N-]=[N+]=NCc1ccc(C[C@H](N)C(=O)O)cc1 [pAMF, para-azidomethyl-L-phenylalanine]",reaction rate relative to pAzF,seven-fold higher
